Data from paper PMC4718506 (Bioscience Reports, 2016).
Where no end group is shown, it is not given here.

What was measured:
[1] = tested on: glucagon receptor with region (ECL2 and neighbouring helical regions) replaced by GLP-1R equivalent; details: ECL2 and neighbouring helical regions replaced with GLP-1R equivalent; cited from earlier work
Source text: (§1) This putative salt bridge may play an important structural role, the disruption of which could result in a disturbance of the agonist-binding site formed by other residues in ECL2.

glucagon receptor = details: cited from earlier work
Source text: as §1

[2] = tested on: glucagon receptor with upper half replaced by GLP-1R; details: upper half of glucagon receptor replaced with GLP-1R; cited from earlier work
[3] = tested on: GLP-1R mutant Arg-190^2.60–Ala; details: cited from earlier work
[4] = tested on: GLP-1R mutant Arg-190^2.60–Ala; details: cited from earlier work; remark: listed apart in the source
[5] = tested on: glucagon receptor mutant Asp-385^7.41–Glu; details: Asp-385^7.41–Glu glucagon receptor; cited from earlier work
Source text: […]. These Arg-310^5. ...

GLP-1R [6] = details: truncation of first two residues of GLP-1; cited from earlier work
GLP-1R [7] = details: truncation of first two residues of GLP-1; cited from earlier work; remark: listed apart in the source
[8] = tested on: hGLP-1R double-Ala mutants (four sites, TM4/ECL2/TM5); assay: Radioligand binding, double-Ala scan; design: species or system human; details: 75 pM 125I-GLP-1, >10,000-fold unlabelled GLP-1 competitor; four sites of double-Ala scan; data in Table S2
Description: Flp-In HEK293 cells, cultured to confluence on five 160-cm^2 Petri dishes (pre-coated with poly-D-lysine), were washed with PBS, followed by the addition of 15 ml of ice-cold sterile double distilled water to induce cell lysis. Following 5 min incubation on ice, the ruptured cells were thoroughly washed with ice-cold PBS before being scraped from the plates and pelleted by centrifugation in a bench-top centrifuge (13,000 g for 30 min). The crude membrane pellet was resuspended in 1 ml membrane-binding solution (MBS; 50 mM HEPES pH 7.4, 2.5 mM CaCl2, 5 mM MgCl2, 0.2% BSA) and forced through a 23G needle. Aliquots (0.1 ml) were snap-frozen in liquid nitrogen and stored at −70°C. When required for assay, membranes were slowly thawed on ice before diluting to a concentration that gave total radioligand binding of <10% total counts added. […] Assays were carried out for 1 h in MultiScreen 96-well Filtration Plates (Glass fibre filters, 0.65 μm pore size, Millipore) pre-soaked in 1% non-fat milk/PBS. After the incubation, membrane-associated radioligand was harvested by transferring the assay mixture to the filtration plate housed in a vacuum manifold. […]
Binding and cAMP assays were carried out with triplicate values at each ligand concentration and with each assay being repeated at least three times. The resultant data were analysed using Prism 6 (GraphPad Software Inc.).

Question: With “Ser-12–glucagon: Lys-12* in native glucagon, equivalent of Ser-18* in GLP-1” as the substance, how does the affinity and potency [1] read?
Answer: could be rescued

Question: What about the affinity and potency (glucagon receptor) of the same substance?
Answer: reduced affinity and potency

Question: With “Glu-3–glucagon: native glucagon has Gln-3*” as the substance, how does the affinity and potency (glucagon receptor) read?
Answer: reduced affinity and potency

Question: What about the affinity and potency [2] of the same substance?
Answer: could be rescued

Question: What does the source list for “oxyntomodulin: has Gln at the 3rd position rather than Glu”?
Answer: effect on affinity [3]: did not reduce oxyntomodulin affinity or efficacy; effect on efficacy [4]: did not reduce oxyntomodulin affinity or efficacy

Question: Which “effect on affinity and potency” value [5] does the source give for “Ala-2–glucagon: Ser-2* of glucagon replaced (equivalent of Ala-8* in GLP-1)” here?
Answer: improve the affinity and potency

Question: Which results are given for “GLP-1(9–36)amide: Truncation of the first two residues of GLP-1 (EGTFTSDVSSYLEGQAAKEFIAWLVKGR-NH2; UniProt P01275 100-127, looked up, fragment)”?
Answer: affinity (GLP-1R [6]): reduced affinity; efficacy (GLP-1R [7]): substantial loss of efficacy

Question: Which “effect on affinity and potency” value [5] does the source give for glucagon: native glucagon here?
Answer: reducing the affinity and potency

Question: Which specific binding [8] does the source give for “^125I-GLP-1: radioligand, kind gift of Novo Nordisk” here?
Answer: reduced specific binding
